Biological target: T1, trypsin-activated recombinant human renin (Homo sapiens, UniProt P00797)
T1 sequence (P00797 67-406): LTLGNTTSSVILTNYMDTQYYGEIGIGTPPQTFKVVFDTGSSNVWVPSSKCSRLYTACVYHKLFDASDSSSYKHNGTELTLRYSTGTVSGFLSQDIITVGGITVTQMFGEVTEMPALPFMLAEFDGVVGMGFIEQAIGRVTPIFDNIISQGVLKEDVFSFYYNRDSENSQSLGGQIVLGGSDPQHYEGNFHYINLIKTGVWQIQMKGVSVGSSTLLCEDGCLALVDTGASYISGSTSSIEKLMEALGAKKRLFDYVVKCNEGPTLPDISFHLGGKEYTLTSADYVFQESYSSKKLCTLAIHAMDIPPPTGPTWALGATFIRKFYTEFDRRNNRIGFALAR
Test: Renin fluorescence assay (internally quenched peptide substrate)
Type: biochemical
Settings: compounds I*
Method in brief: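 Cleavage of an angiotensinogen-derived DABCYL-quenched peptide by trypsin-activated recombinant human renin (0.2-2 nM final) in 50 mM BES, 150 mM NaCl, 0.25 mg/mL BSA, pH 7.0; compounds 10 μM to 1 nM final. Fluorescence (ex 340/em 495 nm) followed 60-360 min at rt; linear-slope rates give percent inhibition versus uninhibited control.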

Row | Compound | IC50 [nM]
1 | CNC[C@H](C[C@H]1CCC2(CC2)OC1)NC(=O)N1CCC[C@@H]([C@@H](OCCNC(=O)OC)c2cccc(F)c2)C1 [I*-159a, methyl 2-((R)-(3-fluorophenyl)((R)-1-((S)-1-((R)-4-oxaspiro[2.5]octan-6-yl)-3-(methylamino)propan-2-ylcarbamoyl)piperidin-3-yl)methoxy)ethylcarbamate] | < 10
2 | CNC[C@H](CC1CCCCC1)NC(=O)N1CCC[C@@H]([C@@H](CCCNC(=O)OC)c2cccc(F)c2)C1 [I*-23a, methyl (R)-4-((S)-1-((S)-1-cyclohexyl-3-(methylamino)propan-2-ylcarbamoyl)piperidin-3-yl)-4-(3-fluorophenyl)butylcarbamate] | < 10
3 | CNC[C@H](CC1CCCCC1)NC(=O)N1CCC[C@@H]([C@@H](OCCCC(=O)NC)c2cccc(Cl)c2)C1 [I*-45a, (R)-3-((R)-(3-chlorophenyl)(4-(methylamino)-4-oxobutoxy)methyl)-N—((S)-1-cyclohexyl-3-(methylamino)propan-2-yl)piperidine-1-carboxamide] | < 50
4 | CNC[C@H](CC1CCCC1)NC(=O)N1CCC[C@@H]([C@@H](OCCNC(=O)OC)c2cc(F)ccc2C)C1 [I*-24a, methyl 2-((R)—((R)-1-((S)-1-cyclopentyl-3-(methylamino)propan-2-ylcarbamoyl)piperidin-3-yl)(5-fluoro-2-methylphenyl)methoxy)ethylcarbamate] | < 1
5 | CNC[C@H](CC1CCOCC1)NC(=O)N1CCC[C@@H]([C@H](OCCNC(=O)OC)c2cccs2)C1 [I*-16a, methyl 2-((S)-((R)-1-((S)-1-(methylamino)-3-(tetrahydro-2H-pyran-4-yl)propan-2-ylcarbamoyl)piperidin-3-yl)(thiophen-2-yl)methoxy)ethylcarbamate] | > 50
6 | CNC[C@H](CC1CCOCC1)NC(=O)N1CCC[C@@H]([C@@H](OCCNC(=O)OC)c2ccc(F)c(Cl)c2F)C1 [I*-148a, methyl 2-((R)-(3-chloro-2,4-difluorophenyl)((R)-1-((S)-1-(methylamino)-3-(tetrahydro-2H-pyran-4-yl)propan-2-ylcarbamoyl)piperidin-3-yl)methoxy)ethylcarbamate] | > 50
7 | CNC[C@H](CC1CCCCC1)NC(=O)N1CCCC[C@@H]([C@@H](OCCNC(=O)OC)c2cccc(Cl)c2)C1 [I*-91a, methyl 2-((R)-(3-chlorophenyl)((R)-1-((S)-1-cyclohexyl-3-(methylamino)propan-2-ylcarbamoyl)azepan-3-yl)methoxy)ethylcarbamate] | < 10
8 | COCC(C)(C)C[C@H](N)CNC(=O)N1CCC[C@@H]([C@@H](OCCNC(=O)OC)c2cccc(F)c2)C1 [I*-14a, methyl 2-((R)—((R)-1-((S)-2-amino-5-methoxy-4,4-dimethylpentylcarbamoyl)piperidin-3-yl)(3-fluorophenyl)methoxy)ethylcarbamate] | > 50
9 | CNC[C@H](CC1CCC(O)CC1)NC(=O)N1CCC[C@@H]([C@@H](OCCNC(=O)OC)c2cccc(Cl)c2)C1 (stereo partly drawn) [I*-102a, methyl 2-((R)-(3-chlorophenyl)((R)-1-((S)-1-(4-hydroxycyclohexyl)-3-(methylamino)propan-2-ylcarbamoyl)piperidin-3-yl)methoxy)ethylcarbamate] | < 50
10 | CNC[C@H](CC1CCCCC1)NC(=O)N1CCC[C@@H]([C@@H](OCCNC(=O)OC)c2ccc(F)c(F)c2)C1 [I*-65a, methyl 2-((R)-((R)-1-((S)-1-cyclohexyl-3-(methylamino)propan-2-ylcarbamoyl)piperidin-3-yl)(3,4-difluorophenyl)methoxy)ethylcarbamate] | < 10
11 | CNC[C@H](CC12CC3CC(CC1C3)C2)NC(=O)N1CCC[C@@H]([C@@H](OCCNC(=O)OC)c2ccccc2)C1 [I*-74a, methyl 2-((R)-((3R)-1-((S)-1-(3-noradamantyl)-3-(methylamino)propan-2-ylcarbamoyl)piperidin-3-yl)(phenyl)methoxy)ethylcarbamate] | < 20
12 | CNC[C@H](CC1CCCCC1)NC(=O)N1CCC[C@@H](C(OCCNC(=O)OC)c2cc(Cl)ccc2F)C1 (stereo partly drawn) [I*-116a, methyl 2-((5-chloro-2-fluorophenyl)((R)-1-((S)-1-cyclohexyl-3-(methylamino)propan-2-ylcarbamoyl)piperidin-3-yl)methoxy)ethylcarbamate] | < 10
13 | CNC[C@H](CC1CCCCC1)NC(=O)N1CCC[C@@H]([C@@](C)(OCC(=O)NC)c2cccc(Cl)c2)C1 [I*-25a, (R)-3-((R)-1-(3-chlorophenyl)-1-(2-(methylamino)-2-oxoethoxy)ethyl)-N—((S)-1-cyclohexyl-3-(methylamino)propan-2-yl)piperidine-1-carboxamide] | > 50
14 | CNC[C@H](CC1CCOCC1)NC(=O)N1CCC[C@@H]([C@@H](OCCNC(=O)OC)c2cc(F)ccc2F)C1 [I*-69a, methyl 2-((R)-(2,5-difluorophenyl)((R)-1-((S)-1-(methylamino)-3-(tetrahydro-2H-pyran-4-yl)propan-2-ylcarbamoyl)piperidin-3-yl)methoxy)ethylcarbamate] | < 50
15 | CNC[C@@H](NC(=O)N1CCC[C@@H]([C@@H](OCCNC(=O)OC)c2cc(Cl)ccc2C)C1)[C@@H](O)C1CCCC1 [I*-107a, methyl 2-((R)-(5-chloro-2-methylphenyl)((R)-1-((1S,2R)-1-cyclopentyl-1-hydroxy-3-(methylamino)propan-2-ylcarbamoyl)piperidin-3-yl)methoxy)ethylcarbamate] | < 10
16 | CNC[C@H](CC12CC3CC(CC(C3)C1)C2)NC(=O)N1CCC[C@@H]([C@@H](OCCNC(=O)OC)c2cc(F)ccc2F)C1 [I*-152a, methyl 2-((R)-((R)-1-((S)-1-(1-adamantyl)-3-(methylamino)propan-2-ylcarbamoyl)piperidin-3-yl)(2,5-difluorophenyl)methoxy)ethylcarbamate] | < 10
17 | CNC[C@H](CC1CCCCC1)NC(=O)N1CCC[C@@H]([C@@H](OCCNC(=O)OC)c2nc(C)cs2)C1 [I*-32a, methyl 2-((R)-((R)-1-((S)-1-cyclohexyl-3-(methylamino)propan-2-ylcarbamoyl)piperidin-3-yl)(4-methylthiazol-2-yl)methoxy)ethylcarbamate] | < 10
18 | CNC[C@H](CC1CCCCC1)NC(=O)N1CCC[C@@H]([C@@H](OCCNC(=O)OC)c2cc(Cl)ccc2F)C1 [I*-117a, methyl 2-((R)-(5-chloro-2-fluorophenyl)((R)-1-((S)-1-cyclohexyl-3-(methylamino)propan-2-ylcarbamoyl)piperidin-3-yl)methoxy)ethylcarbamate] | < 1
19 | CNC[C@H](C[C@H]1CCC(C)(C)OC1)NC(=O)N1CCC[C@@H]([C@@H](OCCNC(=O)OC)c2cccc(F)c2)C1 [I*-154a, methyl 2-((R)-(3-fluorophenyl)((R)-1-((S)-1-((R)-6,6-dimethyl-tetrahydro-2H-pyran-3-yl)-3-(methylamino)propan-2-ylcarbamoyl)piperidin-3-yl)methoxy)ethylcarbamate] | < 20
20 | CNC[C@@H](CC1(C)CCCCC1)NC(=O)N1CCC[C@@H]([C@@H](OCCNC(=O)OC)c2cccc(Cl)c2)C1 [I*-89a, methyl 2-((R)-(3-chlorophenyl)((R)-1-((R)-1-(methylamino)-3-(1-methylcyclohexyl)propan-2-ylcarbamoyl)piperidin-3-yl)methoxy)ethylcarbamate] | > 50
21 | CNC[C@H](C[C@H]1CCC(=O)N(C)C1)NC(=O)N1CCC[C@@H]([C@@H](OCCNC(=O)OC)c2cccc(Cl)c2)C1 [I*-131a, methyl 2-((R)-(3-chlorophenyl)((R)-1-((S)-1-((R)-1-methyl-6-oxopiperidin-3-yl)-3-(methylamino)propan-2-ylcarbamoyl)piperidin-3-yl)methoxy)ethylcarbamate] | > 50
22 | CNC[C@H](CC12CC3CC(CC1C3)C2)NC(=O)N1CCC[C@@H]([C@@H](OCCNC(=O)OC)c2cccc(F)c2)C1 [I*-123a, methyl 2-((R)-((3R)-1-((S)-1-(3-noradamantyl)-3-(methylamino)propan-2-ylcarbamoyl)piperidin-3-yl)(3-fluorophenyl)methoxy)ethylcarbamate] | < 10
23 | CNC[C@H](CC1CCOCC1)NC(=O)N1CCC[C@@H]([C@@H](OCCNC(=O)OC)c2ccccc2)C1 [I*-3a, methyl 2-((R)—((R)-1-((S)-4-(methylamino)-3-(tetrahydro-2H-pyran-4-yl)propan-2-ylcarbamoyl)piperidin-3-yl)(phenyl)methoxy)ethylcarbamate] | < 50
24 | CCNC[C@H](CC1CCCCC1)NC(=O)N1CCC[C@@H]([C@@H](OCCNC(=O)OC)c2cccc(Cl)c2)C1 [I*-88a, methyl 2-((R)-(3-chlorophenyl)((R)-1-((S)-1-cyclohexyl-3-(ethylamino)propan-2-ylcarbamoyl)piperidin-3-yl)methoxy)ethylcarbamate] | < 1
25 | COC(=O)NCCO[C@@H](c1cccc(Cl)c1)[C@@H]1CCCN(C(=O)N[C@](C)(CN)CC2CCCCC2)C1 [I*-59a, methyl 2-((R)-((R)-1-((S)-1-amino-3-cyclohexyl-2-methylpropan-2-ylcarbamoyl)piperidin-3-yl)(3-chlorophenyl)methoxy)ethylcarbamate] | < 10

— patent publication US8487108B2, “Piperidinyl carbamate intermediates for the synthesis of aspartic protease inhibitors” (Vitae Pharmaceuticals, Inc., priority 2005, dated 2013)
